Reference: patent publication US10598667B2, “Functional illumination in living cells” (The Regents of the University of California, priority 2013, dated 2020)
“Also recorded” adds a separate entry of the source. Like-named read-outs stand apart in the source and are kept apart here. Bridges are numbered along the chain shown (N, C = ends). Where no end group is shown, it is not given here. [ ]: non-standard residue; d: D form. pY = N[C@@H](Cc1ccc(OP(=O)(O)O)cc1)C(=O)O

Legend:
[1] = MG binding of peptide ligands from screening and their derivatives; design: key to MG binding: −: no binding; +: weak binding; ++: mild binding; +++: strong binding; ++++: very strong binding; settings: for MG binding: 11 hour incubation with 5 μM MG in PBS buffer (pH 7.4); for MG binding of phosphorylated form (in words): phosphorylated but not unphosphorylated form
[2] = Sequential screening of PDMS affixed OBOC bead array with three dyes; format: binding; settings: 100 μM dye in PBS, three dyes incubated sequentially on the same bead array
Experimental: Silicon Elastomer Base was mixed completely with Silicone Elastomer Curing Agent at ratio 10:1 in volume and the solution was kept in vacuum container for 15 to 20 minutes to eliminate the gas bubbles formed during the mixing process. After the removal of all residual bubbles, approximately 0.5-1 mL of PDMS solution was added into the bottom of a 60 mm culture dish. The dish was then spun on a single wafer spin processor (Laurell Technologies Corporation®, model WS-6505-6NPP/Lite) to evenly distribute the solution over the plates, at a speed of 4000 rpm for 30 s. A 5 μm layer of PDMS was formed on the bottom of dish and was cured at 80° C. for 5 min or at room temperature for 24 hrs to allow for beads immobilization. Knowing that the PDMS coating was about 5 μm thick and the radius of bead was around 45 μm, the percentage of free bead surface area was estimated by the formula of [1-2πrh/4πr^2]×100% (h=thickness of PDMS layer; r=radius of bead) to be approximately 95%. The library beads resuspended in 70% ethanol solution were first randomly placed on the surface of a glass plate that was 10% smaller than the dish used in the experiment. After the ethanol evaporated, a syringe needle was used to adjust the dry beads to evenly redistribute beads on the glass surface. Then the dish was inverted and the PDMS layer was pressed down onto the glass plate with beads. The library beads were embedded partly inside the PDMS layer.
Dye solutions were prepared in PBS to a 100 μM final concentration and 5 mL of each dye solution were added into the 60 mm dish with beads. Three dyes were tested sequentially. The dish was kept swirling at 60 rpm on the rotator. The dye binding was monitored for 90 minutes, and then the dye solution was removed from the dishes and PBS was added to rinse the beads on the bottom to remove the color dye. The PBS solution was changed every 30 min and the dish was always swirled as above. The beads color change was also observed and recorded at certain time interval during the whole wash process to collect data of color dissociation. Before adding the next dye solution, beads were washed with 70% ethanol to completely remove residual dye and were rinsed with PBS solution three times afterwards.
A representative positive bead for each color was selected for the color binding and dissociation study. A series of images were taken at different time points during the binding and washing process. From the images taken, regions of interest (ROI) with the same size were picked up from the color beads and colorless control beads. The value from the control bead was subtracted from the color bead to get quantitated color value for each single color bead. The measure of the color intensity for each color dye was performed using the Kodak Image Station 2000MM.
The PDMS affixed bead array was incubated with three different dyes sequentially. […] Eleven beads were selected for further analysis based on their characteristic binding profiles (FIG. 2). […] The amino acid sequences of the peptides bound to the beads were determined (Table 1).

[3] = Abltide motif OBOC library screening with MG before and after dephosphorylation; format: binding; settings: for Post-dephos fluorescent signal: after dephosphorylation (treatment with 50% HF); for Pre-dephos fluorescent signal: before dephosphorylation; for ΔF/F: pre- vs post-dephosphorylation
From the text: Screening for Library category 2 (Table 2) necessitates that the entire OBOC bead library array be scanned with and without MG or other dyes, before and after PTM. Here, we will use c-src PTK as an example. We have previously reported the use of OBOC combichem and radiosubstrate screening method to identify an efficient and specific peptide substrate (YIYGSFK; SEQ ID NO:35) for c-src PTK. […] Recently, we prepared YIY(P)GSFKKKXn (SEQ ID NO:216) libraries (X=all 19 L-amino acids except Cys, n=6-9) and screened them against MG. After 1 hr incubation, near-infra-red image of the entire immobilized library was captured. The bead library was then thoroughly washed, and dephosphorylated with 50% HF. Beads that strongly fluoresce near infra-red before dephosphorylation but fluoresce weakly (or none) after dephosphorylation were selected as candidate GESIs for c-src PTK (Table 6). Of these 8 peptides isolated from screening ˜300,000 beads, 3 has 1 Trp, and the remaining 5 have no Trp. Work is currently underway to characterize their substrate efficiency and specificity biochemically in a cell-free system and subsequently inside living cells. In principle, using various dyes and PKs to screen OBOC libraries, we should be able to develop several GESIs against several PKs that can be multiplexed with different dyes in living cells. We have developed GESIs for one serine/threonine kinase (PKA), and two tyrosine kinases (c-src and bcr-abl). Very recently, we have designed another library with a c-abl motif (“Abltide”): EAIY(P)AAPFAKKXn (SEQ ID NO:217).
After screening about one million beads with MG, we identified four peptides that greatly activate MG in phosphorylated but not dephosphorylated form (Table 7). Photomicrograph of LLT4bead is shown in FIG. 21, with a marked decrease in fluorescent signal (relative arbitrary level of 1930 to 93 and a ΔF/F value of 19; see right columns of Table 7) after dephosphorylation (treatment with 50% HF). High consensus was observed. All 4 beads have a Tyr at X7, a negative-charged amino acid at X4, hydrophobic amino acids at X1, X6 and X8 (3 out 4 have Val at X6 and Tyr at X8). Three out four beads have a positive-charged amino acid at X2 position. To discover GESIs for PKA, we will include the known PKA substrate motif (RRX[S/T]; SEQ ID NO:223) into the OBOC libraries. In some libraries, the known kinase substrate motifs will be placed between two stretches of random residues. In some cases, we have found increased (instead of decrease) fluorescence after dephosphorylation. These peptides are potential leads for developing phosphatase sensors.

[4] = Fluorescence titration of peptide in solution with MG, 2 mM Ca2+, 650 nm; format: binding
Experimental: Two peptides that can activate MG with or without calcium sensitivity were selected for further characterization. A solution form of the two peptides were synthesized and titrated with MG in the presence of 2 mM Ca^2+. Fluorescent signal at 650 nm was measured. […] Computational modeling confirmed stably folded structure of peptide 12 upon MG binding, preventing intramolecular motions of MG (FIG. 8B, FIG. 10A, B). […] The immobilized peptides on TentaGel beads were then titrated with an increasing amount of MG in the presence and absence of 2 mM Ca^2+. Fluorescent emission at 650 nm by each individual bead was measured. […] Computational modeling further confirmed that stably folded structure of peptide 2 only forms upon calcium binding (FIG. 11B).

2C (CDVYI[pY]GSFKNDYIC; disulfide 1-15 (inferred)) [Peptide 2C]
MG binding [1]: ++++

CYKWWVC (synthetic genetically encoded small illuminant (GESI) peptide of bead #7)
Dye binding ([2]; listed as #7): bind to both indigo carmine and bromocresol purple

EAIY(P)AAPFAKKYYVQDSRA (EAI[pY]AAPFAKKYYVQDSRA) [LLT2]
Post-dephos fluorescent signal [3]: 44 relative arbitrary level | Pre-dephos fluorescent signal [3]: 575 relative arbitrary level | ΔF/F [3]: 12

CGNTEPC (synthetic genetically encoded small illuminant (GESI) peptide of bead #6)
Dye binding ([2]; listed as # 6): Malachite green | Dye binding ([2]; listed as #6): only bind to malachite green; also recorded: bind only to malachite green

EAIY(P)AAPFAKKYYVYDMHI (EAI[pY]AAPFAKKYYVYDMHI) [LLT1]
Post-dephos fluorescent signal [3]: 72 relative arbitrary level | Pre-dephos fluorescent signal [3]: 939 relative arbitrary level | ΔF/F [3]: 12

DFMRQGVYDIPE (synthetic genetically encoded small illuminant (GESI) malachite green (MG) binding Peptide 5)
MG binding [1]: ++ | MG binding of phosphorylated form (in words) [1]: bound MG

CLSDEFC (not fully specified (bridges); cysteine pairing not given here; also: bead-bound) [Bead #11]
Dye binding ([2]; listed as # 11): Malachite green | Dye binding ([2]; listed as #11): only bind to malachite green; also recorded: bind only to malachite green

CEIHRIC (synthetic genetically encoded small illuminant (GESI) peptide of bead #9)
Dye binding ([2]; listed as # 9): Bromocresol | Dye binding ([2]; listed as #9): only bind to bromocresol purple; also recorded: bind only to bromocresol purple

CQPDLTC (not fully specified (bridges); cysteine pairing not given here; also: bead-bound) [Bead #3]
Dye binding ([2]; listed as # 3): Malachite green | Dye binding ([2]; listed as #3): only bind to malachite green; also recorded: bind only to malachite green

DILDDGDEIQGE (synthetic genetically encoded small illuminant (GESI) malachite green (MG) binding Peptide 1)
MG binding [1]: + | MG binding of phosphorylated form (in words) [1]: bound MG

EAIY(P)AAPFAKKLYIMDGWF (EAI[pY]AAPFAKKLYIMDGWF) [LLT4]
Post-dephos fluorescent signal [3]: 93 relative arbitrary level | Pre-dephos fluorescent signal [3]: 1930 relative arbitrary level | ΔF/F [3]: 19

5C (CDTYI[pY]GSFKVNPDC; disulfide 1-15 (inferred)) [Peptide 5C]
MG binding [1]: +++

DSDSWGEYFHEE (synthetic genetically encoded small illuminant (GESI) malachite green (MG) binding Peptide 4)
MG binding [1]: ++ | MG binding of phosphorylated form (in words) [1]: bound MG

4C (CDVYI[pY]GSFKYWPAC; disulfide 1-15 (inferred)) [Peptide 4C]
MG binding [1]: ++++

1C (CDDYI[pY]GSFKPYIAC; disulfide 1-15 (inferred)) [Peptide 1C]
MG binding [1]: ++++

CHPLLPC (not fully specified (bridges); cysteine pairing not given here; also: bead-bound) [Bead #5]
Dye binding ([2]; listed as # 5): Bromocresol | Dye binding ([2]; listed as #5): only bind to bromocresol purple; also recorded: bind only to bromocresol purple

EAIY(P)AAPFAKKYYVSERKW (EAI[pY]AAPFAKKYYVSERKW) [LLT3]
Post-dephos fluorescent signal [3]: 63 relative arbitrary level | Pre-dephos fluorescent signal [3]: 835 relative arbitrary level | ΔF/F [3]: 12

3-P (DNYIYGSFKPWEWC; synthetic genetically encoded small illuminant (GESI) malachite green (MG) binding peptide 3-P from linear library L-1)
MG binding [1]: ++

DWWDWGNHGYTE [Peptide 12]
Binding characteristics in solution studies [4]: strong binding characteristics | Kd ([4]; binding to MG, read-out: binding affinity): 0.41 nM | Kd ([4]; peptide in solution, 2 mM Ca2+, one-site specific binding, read-out: Kd): ~0.41 nM

CMTQEAC (synthetic genetically encoded small illuminant (GESI) peptide of bead #8)
Dye binding ([2]; listed as # 8): Malachite green | Dye binding ([2]; listed as #8): only bind to malachite green; also recorded: bind only to malachite green

3C (CDNYI[pY]GSFKNPWEWC; disulfide 1-16 (inferred)) [Peptide 3C]
MG binding [1]: ++++

DRDGDGDHRKIE (synthetic genetically encoded small illuminant (GESI) malachite green (MG) binding Peptide 3)
MG binding [1]: +++

CLMNKWC (not fully specified (bridges); cysteine pairing not given here; also: bead-bound) [Bead #2]
Dye binding ([2]; listed as #2): bind to both indigo carmine and bromocresol purple
